# Legend:
# [1] = system: Candida albicans, and Aspergillus niger; test: Preservative screening test (modified USP/EP preservative efficacy test), fungi; assay type: cell-based; details: for Fungi × 10^5 (cfu/mL): 1 week at 25 ° C., total fungal count 2.84 × 10^5 cfu/mL
# Protocol: (§1) The efficacy of the preservative against various microorganisms was measured using a modified USP/EP preservative efficacy test. These tests were conducted at Microconsult Inc. (Dallas, Tex.). In the procedure, formulations were tested against the following microorganisms: Escherichia coli, Staphylococcus aureus, Pseudomonas aeruginosa, Candida albicans, and Aspergillus niger. The three bacterial strains were inoculated together at a total concentration of ˜10^5 cfu/mL, and the two fungi were inoculated together at a total concentration of ˜10^5 cfu/mL. Samples were incubated for 7 days at room temperature (25° C.), and the total bacterial and fungal counts were measured using a colony counter. The log reduction (LR) values for the bacterial and fungal counts were calculated as log (initial count/final count).
# (§2) In the unmodified USP/EP preservative efficacy tests, each microorganism is tested separately at a concentration of ˜10^5 cfu/mL. […] The preservative efficacy test was modified in this study to reduce the total sample requirement and cost per analysis. Although the bacterial and fungal strains were not tested individually at specified concentrations, by comparing the overall bacterial and fungal log reduction values with the regulatory requirements, an assessment is made of the efficacy of the preservative against these microorganisms.
# (§3) The formulations were prepared by adding the preservatives at the desired concentrations as per the I-optimal design table (Table II), generated using the software Strategy (Experiment Strategies Foundation & Process Builder, Inc.). All samples were incubated at 37° C. for 9 weeks. Because protein aggregation was known to be the primary degradation pathway, protein stability was examined by SEC and right-angle light scattering to monitor the formation of soluble and insoluble aggregates, respectively, and by UV spectroscopy to monitor changes in the protein concentration. The biological activity of the samples was assessed after 1 month at 37° C. Furthermore, to assess the antimicrobial efficacy of the formulations, samples were examined by the preservative screening test at the initial time point. Samples were incubated at room temperature, and the aerobic plate counts were measured based on the minimum requirements of the USP and BP/EP preservative efficacy tests at 24 hours, 7 days, and 14 days.
# [2] = system: Escherichia coli, Staphylococcus aureus, Pseudomonas aeruginosa; test: Preservative screening test (modified USP/EP preservative efficacy test), bacteria; assay type: cell-based; details: for maximal log reduction against bacteria (model simulation): individual preservative; for b-coefficient, Bacterial LR: ± 95% confidence limits; for Bacterial × 10^4 (cfu/mL): 1 week at 25 ° C., total bacterial count 8.78 × 10^4 cfu/mL; for antimicrobial efficacy against bacteria (regression analysis, in words): I-optimal design, 14 days at room temperature
# Protocol: as §1, §2, §3
# [3] = system: formulated humanized monoclonal antibody; test: Visual analysis of the antibody formulation with preservative; assay type: physicochemical; details: for Visual analysis: after 2 days at 50° C.
# Protocol: (§4) The compatibility of six parenteral preservatives (benzyl alcohol, chlorobutanol, methyl paraben, propyl paraben, phenol, and m-cresol) with the formulated humanized monoclonal antibody was tested. The preservatives were added to the formulated antibody based on their commonly used concentration ranges in marketed multidose products (3). Protein aggregation was suspected to be the primary degradation pathway. Preliminary evaluation of the preservatives was done initially by DSC and after 2 days of incubation at 50° C. by visual inspection for appearance and by SEC for soluble aggregates.
# [4] = system: formulated humanized monoclonal antibody; test: Differential scanning calorimetry (DSC), denaturation temperature; assay type: physicochemical; details: for Effect on the denaturation temperature (in words): addition of the preservative, relative to control; for Tm (by DSC): initial time point, t0
# Protocol: as §4
# A decrease in the denaturation temperature reflects a destabilizing effect of the preservative on formulation stability. The denaturation temperature (Tm) of the sample was measured using the Pyris 1 differential scanning calorimeter (Perkin Elmer). A sample volume of 50 μL was taken from a 10 mg/mL protein sample and sealed in a stainless steel pan. The sample was held at 32° C. for 2 minutes, and heated to 100° C. at the rate of 10° C./min.
# [5] = system: formulated humanized monoclonal antibody; test: Size-exclusion chromatography (SEC), monomer content; assay type: physicochemical; details: for Effect of the preservative on antibody stability (in words): preliminary screening, 2 days at 50° C.; for Monomer (%): 1 week at 45 ° C.; for Percent monomer (by SEC): after 2 days at 50° C.
# Protocol: as §4
# (§5) Because of the results seen in the preliminary evaluation, additional analyses were done using lower concentrations of the preservatives.
# The monomer content, soluble aggregates, and clips due to hydrolysis were monitored by size-exclusion chromatography. The analytical system employed consisted of an HPLC pump (Perkin Elmer, Series 410) and an autosampler (Perkin Elmer, ISS 2000) connected to a diode array detector (Perkin Elmer, 235C). Two size-exclusion chromatography columns (Tosohaas TSK-Gel, G3000SWXL,), connected in tandem, were used for sample separation. The composition of the mobile phase was 200 mM KPO4, 150 mM NaCl, pH 6.9. Samples were diluted to 1 mg/mL and a sample volume of 40 μL was injected for analysis. The flow rate was 1.0 mL/min, and detection was at 220 and 280 nm.
# [6] = system: antigen expressed on human T cells; test: Potency testing by FACS binding assay (flow cytometry); details: 1 week at 45 ° C.
# Protocol: as §5
# The biological activity (potency) of the protein was measured by flow cytometry, based on the binding of the antibody antigen expressed on human T cells.
# [7] = main effect of the preservative (bi)
# [8] = quadratic term of one preservative (bii)
# [9] = single preservative, 0.2% chlorobutanol
smiles,measurement,setting,value
"CC(C)(O)C(Cl)(Cl)Cl [Chlorobutanol, chlorobutanol]","b-coefficient, Fungal LR",[1]; [7],0.07
same,Fungi × 10^5 (cfu/mL),[1]; preservative 0.05%,18 × 10^5 cfu/mL
same,Fungi × 10^5 (cfu/mL),[1]; preservative 0.1%,14 × 10^5 cfu/mL
same,Fungi × 10^5 (cfu/mL),[1]; preservative 0.2%,0 × 10^5 cfu/mL
same,"b-coefficient, Fungal LR",[1]; [8],−0.64
same,"log reduction value predicted by simulation, fungi",[1]; [9],1.2
same,maximal log reduction against bacteria (model simulation),[2],2.0
same,"b-coefficient, Bacterial LR",[2]; [7],0.27 ± 0.05
same,Bacterial × 10^4 (cfu/mL),[2]; preservative 0.2%,46 × 10^4 cfu/mL
same,"b-coefficient, Bacterial LR",[2]; [8],0.17 ± 0.10
same,"log reduction value predicted by simulation, bacteria",[2]; [9],2.0
"COC(=O)c1ccc(O)cc1 [Methyl paraben, methyl paraben]",Visual analysis,[3]; preservative 0.05%,Clear
same,Visual analysis,[3]; preservative 0.1%,Clear
same,Effect on the denaturation temperature (in words),[4],did not affect the denaturation temperature
same,Tm (by DSC),[4]; preservative 0.05%,80.4 °C
same,Effect of the preservative on antibody stability (in words),[5],stable
same,Monomer (%),[5]; preservative 0.01%,98.31%
same,Monomer (%),[5]; preservative 0.05%,97.43%
same,Monomer (%),[5]; preservative 0.1%,97.18%
same,Percent monomer (by SEC),[5]; preservative 0.1%,91.3%
same,Percent monomer (by SEC),"[5]; preservative 0.1%, listed as methyl paraben",~91%
same,Potency (%),[6]; preservative 0.01%,73%
same,Potency (%),[6]; preservative 0.05%,75%
same,Potency (%),[6]; preservative 0.1%,75%
same,"b-coefficient, Fungal LR",[1]; [7],0.46
same,Fungi × 10^5 (cfu/mL),[1]; preservative 0.01%,26 × 10^5 cfu/mL
same,Fungi × 10^5 (cfu/mL),[1]; preservative 0.05%,2 × 10^5 cfu/mL
same,Fungi × 10^5 (cfu/mL),[1]; preservative 0.1%,0 × 10^5 cfu/mL
same,"b-coefficient, Fungal LR",[1]; [8],0.00
same,"antimicrobial efficacy against bacteria (regression analysis, in words)",[2],statistically significant antimicrobial efficacy
same,maximal log reduction against bacteria (model simulation),[2],2.3
same,"b-coefficient, Bacterial LR",[2]; [7],0.60 ± 0.05
same,Bacterial × 10^4 (cfu/mL),[2]; preservative 0.01%,TNTC
same,Bacterial × 10^4 (cfu/mL),[2]; preservative 0.05%,TNTC
same,Bacterial × 10^4 (cfu/mL),[2]; preservative 0.1%,56 × 10^4 cfu/mL
same,"b-coefficient, Bacterial LR",[2]; [8],0.12 ± 0.10
Cc1cccc(O)c1 [m-cresol],Visual appearance of the formulations (in words),"[3]; all tested concentrations, 2 days at 50° C.",precipitated the protein
same,Visual analysis,[3]; preservative 0.1%,Precipitated
same,Visual analysis,[3]; preservative 0.3%,Precipitated
same,Effect of the preservative on antibody stability (in words),[5],not compatible with the protein
"CCCOC(=O)c1ccc(O)cc1 [Propyl paraben, propyl paraben]",Visual analysis,[3]; preservative 0.02%,Clear
same,Effect on the denaturation temperature (in words),[4],did not affect the denaturation temperature
same,Tm (by DSC),[4]; preservative 0.02%,80.6 °C
same,Effect of the preservative on antibody stability (in words),[5],stable
same,Monomer (%),[5]; preservative 0.0075%,97.89%
same,Monomer (%),[5]; preservative 0.01%,97.34%
same,Percent monomer (by SEC),[5]; preservative 0.02%,85.3%
same,Percent monomer (by SEC),"[5]; preservative 0.02%, listed as propyl paraben",85%
same,Potency (%),[6]; preservative 0.0075%,74%
same,Potency (%),[6]; preservative 0.01%,68%
same,"b-coefficient, Fungal LR",[1]; [7],0.29
same,Fungi × 10^5 (cfu/mL),[1]; preservative 0.0075%,2 × 10^5 cfu/mL
same,Fungi × 10^5 (cfu/mL),[1]; preservative 0.01%,0 × 10^5 cfu/mL
same,"b-coefficient, Fungal LR",[1]; [8],0.40
same,"antimicrobial efficacy against bacteria (regression analysis, in words)",[2],not effective
same,"b-coefficient, Bacterial LR",[2]; [7],−0.14 ± 0.05
same,Bacterial × 10^4 (cfu/mL),[2]; preservative 0.0075%,TNTC
same,Bacterial × 10^4 (cfu/mL),[2]; preservative 0.01%,TNTC
same,"b-coefficient, Bacterial LR",[2]; [8],0.26 ± 0.10
"Oc1ccccc1 [Phenol, phenol]",Visual analysis,[3]; preservative 0.1%,Slightly cloudy
same,Visual analysis,[3]; preservative 0.5%,Cloudy
same,Effect of the preservative on antibody stability (in words),[5],not compatible with the protein
same,Effect of the preservative on antibody stability (in words),[5]; listed as phenol,caused the formation of both soluble and insoluble aggregates
same,Percent monomer (by SEC),[5]; preservative 0.1%,62.7%
same,Percent monomer (by SEC),[5]; preservative 0.5%,20.0%
